Laboratory results from PubChem BioAssay AID2060490 (Molecular Pharmacology Branch, DTP, NCI, 2025).

Tested on: 885512-296-R-J2-PDC complex spheroid viability
Assay: Anticancer human tumor 885512-296-R-J2-PDC patient-derived breast carcinoma cell line growth inhibition [GQUAD]
Details: for IC50: curve of first compound; for viability, T/C: stronger effect = lower value; active = viability on the fitted dose curve at most 10% of control; inactive = the rest
Source text: DNA G-quadruplex Stabilizer Agents in Combinations in Complex Spheroids
A high-throughput screen of multi-cell type tumor spheroids was designed to identify active combinations of DNA G-quadruplex stabilizer agents and targeted small molecules. Complex spheroids include a stromal component modeled by human endothelial cells (HUVEC) and fibroblasts modeled by human mesenchymal stem cells (MSCs). The concentration ranges selected for each drug and investigational agent were based upon clinically achievable concentrations if the clinical Cmax of the agent was known.
Compounds. The drugs and investigational agents: pidnarulex (CX-5461; NSC782164), APTO-253 (NSC789042), BRACO-19 (NSC847499), peposertib (NSC802822), ceralasertib (NSC780249), elimusertib (NSC800525), camonsertib (NSC841442), AZD-1390 (NSC803789), olaparib (NSC753686), talazoparib (NSC767125), ART-558 (NSC835418), sotorasib (NSC818433), MRTX-1133 (NSC836407), SN-38 (NSC673596), topotecan (NSC609699), etoposide (NSC141540), doxorubicin (NSC123127), gemcitabine (NSC613327), 5-fluorouracil (NSC19893), paclitaxel (NSC125973), vemurafenib (NSC761431), panobinostat (NSC761190), R-306465 (JNJ-16241199; NSC773264), adavosertib (NSC754352), TP-3654 (NSC805149), carboplatin (NSC241240), KSQ-4279 (NSC840948), and staurosporine (NSC755774) were obtained from the National Cancer Institute (NCI) Developmental Therapeutics Program Chemical Repository (34). The FDA-approved anticancer drug set is available from the NCI Developmental Therapeutics Program. […] The stock solutions were prepared in dimethyl sulfoxide (DMSO, Sigma-Aldrich, St. Louis, MO, cat. D2650) at 800-fold the tested concentration and stored at -70 degrees C prior to their use. All drugs and investigational agents were tested over a range starting from a high concentration at or near the clinical Cmax and decreasing in half-log increments. If the clinical Cmax for an agent had not been determined, the highest concentration tested was 10 microM.
2.3 Cell Culture. All cells were maintained in an incubator at 37 degrees C and 5% CO2 with 95% humidity. The PDC lines were cultured according to standard operating procedures established by the NCI PDMR. All PDCs were thawed and cultured in Matrigel-coated flasks prepared with a working solution of 1X Ham's F-12 nutrient mix, without supplementation (Invitrogen, cat. 11765054), 100 U/mL penicillin-streptomycin (Invitrogen, cat. 15140122), and 2.5% Matrigel (Corning Inc., cat. 354248) for the first three passages. The 857933-349-R-J2-PDC line was cultured in 6C/Colon 1B media, which includes advanced DMEM/F-12 (Thermo Fisher Scientific, cat. 12634028), 10 mM HEPES (Thermo Fisher Scientific, cat. 15630080), 1X GlutaMAX supplement (Thermo Fisher Scientific, cat. 35050061), 0.1 mg/mL primocin (InvivoGen, cat. ant-pm-2), 10% defined fetal bovine serum, heat inactivated (HyClone Laboratories Inc., cat. SH30070.03HI), 50% L-WRN conditioned media (ATCC, cat. CRL-3276), 1.25 mM N-Acetyl-L-cysteine (Sigma-Aldrich, cat. A9165), 10 mM nicotinamide (Sigma-Aldrich, cat. N0636), 1X B-27 supplement (Thermo Fisher Scientific, cat. 17504044), 1X N-2 supplement (Thermo Fisher Scientific, cat. 17502048), 10 microM Y-27632 dihydrochloride (Tocris Bioscience, cat. 1254), and 50 ng/mL human EGF recombinant protein (Thermo Fisher Scientific, cat. PHG0311). The 485176-168-R4-J1-PDC line was cultured in Panc media, which includes all 6C/Colon 1B media components plus 100 ng/mL human FGF-10 (Thermo Fisher Scientific, cat. 100-26), 500 nM SB-431542 (Selleckchem, cat. S1067), and gastrin (Tocris, cat. 3006).
[…]

[1] = second compound 0.0316 µM, first compound 0.0316 µM
[2] = second compound 0.0316 µM, first compound 0.1 µM
[3] = second compound 0.0316 µM, first compound 0.316 µM
[4] = second compound 0.0316 µM, first compound 1 µM
[5] = second compound 0.0316 µM, first compound 3.16 µM
[6] = second compound 0.0316 µM, first compound 10 µM
[7] = second compound 0.1 µM, first compound 0.0316 µM
[8] = second compound 0.1 µM, first compound 0.1 µM
[9] = second compound 0.1 µM, first compound 0.316 µM
[10] = second compound 0.1 µM, first compound 1 µM
[11] = second compound 0.1 µM, first compound 3.16 µM
[12] = second compound 0.1 µM, first compound 10 µM
[13] = second compound 0.316 µM, first compound 0.0316 µM
[14] = second compound 0.316 µM, first compound 0.1 µM
[15] = second compound 0.316 µM, first compound 0.316 µM
[16] = second compound 0.316 µM, first compound 1 µM
[17] = second compound 0.316 µM, first compound 3.16 µM
[18] = second compound 0.316 µM, first compound 10 µM
[19] = second compound 1 µM, first compound 0.0316 µM
[20] = second compound 1 µM, first compound 0.1 µM
[21] = second compound 1 µM, first compound 0.316 µM
[22] = second compound 1 µM, first compound 1 µM
[23] = second compound 1 µM, first compound 3.16 µM
[24] = second compound 1 µM, first compound 10 µM
[25] = second compound 3.16 µM, first compound 0.0316 µM
[26] = second compound 3.16 µM, first compound 0.1 µM
[27] = second compound 3.16 µM, first compound 0.316 µM
[28] = second compound 3.16 µM, first compound 1 µM
[29] = second compound 3.16 µM, first compound 3.16 µM
[30] = second compound 3.16 µM, first compound 10 µM
[31] = second compound 10 µM, first compound 0.0316 µM
[32] = second compound 10 µM, first compound 0.1 µM
[33] = second compound 10 µM, first compound 0.316 µM
[34] = second compound 10 µM, first compound 1 µM
[35] = second compound 10 µM, first compound 3.16 µM
[36] = second compound 10 µM, first compound 10 µM
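Note: spheroids exposed to the compounds for one week.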
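Throughout, for viability, T/C: percent of tumor spheroid viability relative to DMSO vehicle control wells.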

C=CCn1c(=O)c2cnc(Nc3ccc(N4CCN(C)CC4)cc3)nc2n1-c1cccc(C(C)(C)O)n1 + CN(C)c1ccc(Nc2c3ccc(NC(=O)CCN4CCCC4)cc3nc3cc(NC(=O)CCN4CCCC4)ccc23)cc1
341 nM: IC50 (second compound 0.316 µM)
inactive: viability, T/C [1] 104% | viability, T/C [2] 102% | viability, T/C [3] 62.7% | viability, T/C [7] 120% | viability, T/C [8] 98.9% | viability, T/C [9] 51.7% | viability, T/C [10] 7.71% | viability, T/C [13] 122% | viability, T/C [14] 93.5% | viability, T/C [15] 58% | viability, T/C [16] 9.28% | viability, T/C [19] 102% | viability, T/C [20] 103% | viability, T/C [21] 70.5% | viability, T/C [25] 105% | viability, T/C [26] 98.3% | viability, T/C [27] 55.2% | viability, T/C [31] 22% | viability, T/C [32] 22.4% | viability, T/C [33] 12.2%
< 31.6 nM: IC50 (second compound 10 µM)
358 nM: IC50 (second compound 3.16 µM)
462 nM: IC50 (second compound 1 µM)
415 nM: IC50 (second compound 0.0316 µM)
311 nM: IC50 (second compound 0.1 µM)
active: viability, T/C [4] 8.77% | viability, T/C [5] 3.39% | viability, T/C [6] 2.43% | viability, T/C [11] 3.11% | viability, T/C [12] 2.74% | viability, T/C [17] 2.73% | viability, T/C [18] 2.28% | viability, T/C [22] 8.23% | viability, T/C [23] 2.54% | viability, T/C [24] 2.76% | viability, T/C [28] 8.19% | viability, T/C [29] 2.51% | viability, T/C [30] 2.74% | viability, T/C [34] 5.57% | viability, T/C [35] 1.22% | viability, T/C [36] 1.46%

CC(C)(O)C1CCC(Nc2ccc3ncc(-c4cccc(C(F)(F)F)c4)n3n2)CC1 (centres undefined) + CN(C)c1ccc(Nc2c3ccc(NC(=O)CCN4CCCC4)cc3nc3cc(NC(=O)CCN4CCCC4)ccc23)cc1
1560 nM: IC50 (second compound 0.316 µM)
active: viability, T/C [29] 4.35% | viability, T/C [30] 4.39% | viability, T/C [34] 8.44% | viability, T/C [35] 0.72% | viability, T/C [36] 0.22%
1720 nM: IC50 (second compound 0.0316 µM)
1550 nM: IC50 (second compound 1 µM)
1510 nM: IC50 (second compound 0.1 µM)
1030 nM: IC50 (second compound 3.16 µM)
< 31.6 nM: IC50 (second compound 10 µM)
inactive: viability, T/C [1] 111% | viability, T/C [2] 99.6% | viability, T/C [3] 105% | viability, T/C [4] 78.7% | viability, T/C [5] 11.9% | viability, T/C [6] 23.8% | viability, T/C [7] 99.6% | viability, T/C [8] 95% | viability, T/C [9] 97.9% | viability, T/C [10] 68.4% | viability, T/C [11] 15.2% | viability, T/C [12] 18.6% | viability, T/C [13] 106% | viability, T/C [14] 98.6% | viability, T/C [15] 86.3% | viability, T/C [16] 72.2% | viability, T/C [17] 9.35% | viability, T/C [18] 19.9% | viability, T/C [19] 92.7% | viability, T/C [20] 92.4% | viability, T/C [21] 86.3% | viability, T/C [22] 72.5% | viability, T/C [23] 9.81% | viability, T/C [24] 16.3% | viability, T/C [25] 102% | viability, T/C [26] 87.9% | viability, T/C [27] 80.5% | viability, T/C [28] 54.9% | viability, T/C [31] 16.9% | viability, T/C [32] 12.6% | viability, T/C [33] 16%
